The supplement of paper PMC10307832

Experiments:
Test in all cases: relative viability (nuclei count vs DMSO), 5 days (fraction); higher = more cells survive
AT-7519 + Pictilisib = compound: O=C(NC1CCNCC1)c1n[nH]cc1NC(=O)c1c(Cl)cccc1Cl [AT-7519] + CS(=O)(=O)N1CCN(Cc2cc3nc(-c4cccc5[nH]ncc45)nc(N4CCOCC4)c3s2)CC1 [Pictilisib] (partner 1 µM)
In short: (§1)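 Values are medians from duplicate plates. Each reflects relative viability, defined as the nuclei count of treated wells over that of vehicle wells. Lung cancer cell lines in 1536-well plates were pin-tool dosed one day after seeding with one drug alone or with a fixed anchor-drug dose plus five library-drug doses (not always all listed) in √10 steps, then fixed, stained and imaged at 4× after 5 days.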

[1] = compound: C1=CC2=C(C=C(C(=C2N=C1)O)N=NC3=CC4=C(C=C3)C=C(C=C4)S(=O)(=O)O)S(=O)(=O)O + O=C(c1cc(Cc2n[nH]c(=O)c3ccccc23)ccc1F)N1CCN(C(=O)C2CC2)CC1 [Olaparib] (partner 8 µM)
In short: as §1

[2] = compound: C1=CC2=C(C=C(C(=C2N=C1)O)N=NC3=CC4=C(C=C3)C=C(C=C4)S(=O)(=O)O)S(=O)(=O)O + Cc1nc(Nc2ncc(C(=O)Nc3c(C)cccc3Cl)s2)cc(N2CCN(CCO)CC2)n1 [Dasatinib] (partner 0.075 µM)
In short: as §1

AT-7519 + Olaparib = compound: O=C(NC1CCNCC1)c1n[nH]cc1NC(=O)c1c(Cl)cccc1Cl [AT-7519] + O=C(c1cc(Cc2n[nH]c(=O)c3ccccc23)ccc1F)N1CCN(C(=O)C2CC2)CC1 [Olaparib] (partner 8 µM)
In short: as §1

UMC-11 showed a relative viability (AT-7519 + Pictilisib; first compound 0.01 µM) of 0.787, a relative viability (AT-7519 + Pictilisib; first compound 0.03162 µM) of 0.814 and a relative viability (AT-7519 + Pictilisib; first compound 0.3162 µM) of 0.417. For the same cell line, the relative viability (AT-7519 + Pictilisib; first compound 1 µM) was 0.249, the relative viability ([1]; first compound 0.08 µM) was 0.36 and the relative viability ([1]; first compound 0.253 µM) was 0.381. It also gave a relative viability ([1]; first compound 0.8 µM) of 0.34, a relative viability ([1]; first compound 2.53 µM) of 0.376 and a relative viability ([1]; first compound 8 µM) of 0.317. The relative viability ([2]; first compound 0.08 µM) was 0.493, the relative viability ([2]; first compound 0.253 µM) was 0.454 and the relative viability ([2]; first compound 0.8 µM) was 0.456. It also gave a relative viability ([2]; first compound 2.53 µM) of 0.439, a relative viability ([2]; first compound 8 µM) of 0.441 and a relative viability (AT-7519 + Olaparib; first compound 0.01 µM) of 0.333. The relative viability (AT-7519 + Olaparib; first compound 0.03162 µM) was 0.368, the relative viability (AT-7519 + Olaparib; first compound 0.3162 µM) was 0.373 and the relative viability (AT-7519 + Olaparib; first compound 1 µM) was 0.229.
